In patent US10806794B2, “Protease inhibitors having enhanced features” (priority 2008, dated 2020):
Like-named read-outs stand apart in the source and are kept apart here.

Tests used:
HIV-1 HT/92/599 = experiment: HIV-1 reverse transcriptase activity after infection of fresh human PBMCs; format: cell-based; settings: read-out: PBMC/HIV-1HT/92/599 EC50 ± SD; seven days, reverse transcriptase activity
Experimental: Fresh human peripheral blood mononuclear cells (PBMCs) obtained from a commercial source were purified following centrifugation using a Ficoll-Hypaque density gradient. Viable cells were induced to proliferate in the presence of PHA-P and recombinant human IL-2 for 72 hours. […] Cell supernatant containing HIV-1 viral was incubated for 90 minutes at 37° C. with a reaction mixture containing EGTA, Triton X-100, Tris (pH 7.4), DTT, MgCl2, poly rA, oligo dT, and tritiated thymidine triphosphate (TTP). Incorporation of TTP into DNA was monitored by spotting the reaction mixture onto a DEAE filter mat, followed by washes with 5% phosphate buffer, distilled water, and 70% ethanol, and subsequent drying of the mat. Radioactivity was measured using a Wallac 1450 Microbeta Trilux liquid scintillation counter using Opti-Fluor O. Test compound-associated toxicity was measured in PBMCs cultured for seven days in the absence of virus using XTT reagent. […] TI was calculated as TC50/EC50.

[1] = Plasma protein binding by equilibrium dialysis, human plasma; format: in vitro ADME; settings: human, plasma
Experimental: (§1) In assays to estimate binding of test compounds to plasma proteins, test compound solutions (5 μM) are prepared in buffer and species-specific plasma (final DMSO concentration 0.5%). The plasma-containing solution is added to one side of the membrane of an equilibrium dialysis system, and the plasma-free is added to the other side. Dialysis was allowed to reach equilibrium by incubation for two hours at 37° C. The concentration of compound on both sides of the membrane was measured using LC-MS/MS.

HIV-1RF [2] = experiment: Post-exposure assay: compounds added after HIV-1 infection of CEM-SS cells, cell viability; format: cell-based; settings: Human immunodeficiency virus 1, CEM-SS
Experimental: (§2) The effects of pre- and post-infection PI treatment on CEM-SS toxicity were assessed. […] Cell toxicity was monitored six days after infection using XTT reagent. In the post-exposure assay, test compounds were added to cells 0, 24, 48, or 72 h after HIV-1 infection, and cell viability was measured six days post-infection.

HIV-1RF [3] = experiment: Pre-exposure assay: CEM-SS cells treated before HIV-1RF infection, cell viability; format: cell-based; settings: Human immunodeficiency virus 1, CEM-SS
Experimental: as §2

CEM-SS cells = experiment: Post-exposure assay: toxicity in CEM-SS cells; settings: human
Experimental: as §2

HIV-1 virions = experiment: Infectivity of HIV-1 virions from treated cells on naive CEM-SS cells; format: cell-based
Experimental: In concert with p24 analysis, cell supernatants collected from cells exposed to test compounds at 8, 16, or 24 hours post-infection were used to infect naïve CEM-SS cells. Cell viability was measured six days post-infection as a measure of virus infectivity (Table 5).

HIV-1BaL = experiment: HIV-1 p24 levels after infection of fresh human monocyte/macrophages; format: cell-based; settings: Human immunodeficiency virus 1, Monocyte, 168 h, read-out: Monocyte/HIV-1BaL EC50, seven days, p24
Experimental: Mononuclear cells were isolated from fresh human peripheral blood cells by Ficoll-Hypaque density gradient by centrifugation at 600 g for 30 minutes. Banded peripheral blood mononuclear cells (PBMCs) were aspirated from the resulting interface and washed with phosphate buffered saline by low speed centrifugation. […] Cells were allowed to attach for 2 to 12 h at 37° C., then washed with Dulbecco's phosphate buffered saline (DPBS). Monocyte-macrophage monolayer formation was induced by incubation in growth medium (RPMI 1640 medium supplemented with 10% fetal bovine serum, 2 mmol/L L-glutamine, 100 Units/mL penicllin and 10 μg/mL streptomycin) for 7 days. Residual PBMCs were removed by washing the cell monolayers with DPBS. After washing, test compound diluted in growth medium was added to cells. Immediately following test compound addition, HIV-1 virus was added to the cells at multiplicity of infection (MOI)=0.05-0.10. After 7 days in culture, HIV-1 replication was quantified by ELISA measurement of cell-free HIV-1 viral capsid protein (p24) in the tissue culture supernatant of treated monocyte-macrophage monolayers. ELISA to quantify p24 was performed according to manufacturer's instructions (Perkin Elmer, Waltham, Mass.). The quantity of free HIV-1 p24 antigen in the sample was determined by comparing its absorbance at 490 nm to that of control standards.
(§3) Fresh human monocytes were infected with the BaL strain of HIV-1 in the presence of test compounds. After seven days in culture, HIV-1 replication was evaluated by measurement of HIV-1 viral capsid protein (p24) in the tissue culture supernatant (Table 7). […] A TI was calculated as described above using TC50 values derived from cell toxicity data in response to test compounds in the absence of viral infection.

human monocytes = experiment: Toxicity in human monocytes in the absence of viral infection; settings: human
Experimental: as §3

HIV-1RF [4] = experiment: p24 levels after single high MOI HIV-1RF infection of CEM-SS cells, time of addition; format: cell-based
Experimental: The cytoprotective effect against HIV of the PEG-protease inhibitor conjugates was evaluated during a single round of high multiplicity of infection (“MOI”) HIV-1 infection in CEM-SS cells. CEM-SS cells were incubated for one hour with a single high MOI dose of HIV-1RF. Cells were washed to remove free virus, then test compounds were added to cells at 0, 2, 4, 6, 8, 16, or 24 hours after HIV-1 infection. To monitor viral replication, cell supernatants were analyzed at 30 hours post-infection for levels of the HIV capsid protein p24 (FIG. 1). […] Nevirapine inhibited viral replication at 1 μM when added to cells up to four hours post-infection, and at 10 μM when added up to eight hours post-infection.

human plasma proteins = experiment: Plasma protein binding by equilibrium dialysis, human plasma; format: in vitro ADME; settings: human plasma, 5 μM, fraction unbound
Experimental: as §1

CYP3A4 [5] = target: T1, CYP3A4 (Homo sapiens (Human), UniProt P08684); experiment: Metabolic stability in CYP3A4-expressing Bactosomes; format: in vitro ADME; settings: 5 μM
Experimental: (§4) Compounds were evaluated for their propensity to act as substrates of individual human cytochrome P450 enzymes using a bacterial membrane preparation co-expressing human NADPH-cytochrome P450 reductase with either human CYP3A4 or CYP2D6 (Bactosomes™ Cypex, Ltd., Dundee, UK). In vitro metabolism studies using Bactosomes™ expressing individual human CYP isoforms monitor the extent to which a test compound is metabolized by a single CYP450 enzyme and allow identification of the CYP isoforms that may be responsible for the metabolism of a test compound. Timecourse analyses of test molecules (5 μM) with CYP2D6- or CYP3A4-expressing Bactosomes™ (100 pmol/mL) are performed in buffer (0.1 M phosphate, pH 7.4) in a final reaction volume of 25 μL. […] Reactions are terminated by the addition of methanol (50 μL) containing internal standard at 0, 5, 15, 30, and 45 minutes.

human hepatocytes = experiment: Metabolic stability in cryopreserved human hepatocytes; settings: human hepatocytes
Experimental: Metabolism of PI conjugates was investigated by monitoring the levels of unmetabolized parent compound following incubation with cryopreserved human or monkey hepatocytes. The use of whole hepatocytes rather than microsomes requires that the drugs cross the cell membrane to interact with intracellularly-localized metabolic enzymes, and thus provides the most relevant in vitro system for understanding overall metabolic stability of these compounds.
Test compounds (0.1 μM or 3 μM, as indicated) are incubated with cryopreserved human hepatocytes at a cell density of 0.5×10^6 viable cells/mL. […] Duplicate samples (50 μL) are removed from the incubation mixture at various timepoints up to four hours (for 0.1 μM test compound concentration), or one or two hours (for 3 μM test compound concentration), and the reaction is quenched by the addition of methanol containing internal standard (100 μL). The samples are centrifuged (2500 rpm at 4° C. for 20 min), and the supernatants at each time point pooled for cassette analysis by LC-MS/MS.

CYP2D6 = CYP2D6 (Homo sapiens (Human), UniProt P10635); experiment: Metabolic stability in CYP2D6-expressing Bactosomes; format: in vitro ADME; settings: 5 μM
Experimental: as §4

HIV-1RF [6] = experiment: Anti-HIV cytoprotection in CEM-SS cells infected with HIV-1RF (XTT); format: cell-based; settings: six days, XTT; read-out: CEM-SS/HIV-1RF EC50 ± SD
Experimental: To evaluate whether conjugated protease inhibitors retain the ability to protect against HIV-1 infection, CEM-SS cells infected with the RF strain of HIV-1 were treated with test compounds for six days, and then cell viability was monitored using the tetrazolium dye XTT. […] A value for Therapeutic Index (TI) was calculated as TC50/EC50.

Caco-2 cells = experiment: Bi-directional permeability in Caco-2 monolayers; settings: Caco-2 monolayers, apical to basolateral
Experimental: Absorption properties of various compounds were measured using bi-directional permeability assays in Caco-2 cells. […] The efflux ratio is calculated as the ratio of the Papp(B→A)/Papp(A→B).

[7] = Metabolic stability in human liver microsomes; settings: human liver microsomes, 3 μM
Experimental: The human liver microsome-mediated biotransformation of PEG-PI compounds was determined by monitoring the loss of the substrate as a function of time. […] Test compounds (3 μM final concentration) were preincubated with pooled (male and female) human liver microsomes (0.5 mg/mL final protein concentration) in buffer (0.1M phosphate buffer, pH 7.4) at 37° C. Reactions were initiated by the addition of NADPH (1 mM final concentration), and allowed to continue for 0, 5, 15, 30, and 45 minutes. […] Sample supernatants are analyzed by liquid chromatography-tandem mass spectrometry.

CYP3A4 [8] = target: T1, CYP3A4; experiment: CYP450 inhibition in human liver microsomes: CYP3A4;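 also: incubation at 37 °C started by adding 1 mM NADPH, with formation of the probe metabolite measured via LC-MS/MS or fluorescent detection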
[9] = tested on: human liver microsomal proteins; experiment: Microsomal protein binding by equilibrium dialysis; format: in vitro ADME; settings: human liver microsomes, 3 μM, fraction unbound
Experimental: PEGylated protease inhibitors were evaluated for their propensity to be bound by proteins in normal human plasma or in human liver microsome preparations using equilibrium dialysis analysis. For microsomal protein binding, test compound (final concentration=3 μM) was diluted into either buffer alone or buffer containing human liver microsomes. The protein-free and microsome-containing solutions were then added to either side of an equilibrium dialysis system and allowed to reach equilibrium at 37° C. The concentration of compound on both sides of the membrane at equilibrium was quantified by LC-MS/MS, and the fraction of compound that remains unbound (Fu) is calculated.

T1 sequence (P08684 whole entry, canonical isoform): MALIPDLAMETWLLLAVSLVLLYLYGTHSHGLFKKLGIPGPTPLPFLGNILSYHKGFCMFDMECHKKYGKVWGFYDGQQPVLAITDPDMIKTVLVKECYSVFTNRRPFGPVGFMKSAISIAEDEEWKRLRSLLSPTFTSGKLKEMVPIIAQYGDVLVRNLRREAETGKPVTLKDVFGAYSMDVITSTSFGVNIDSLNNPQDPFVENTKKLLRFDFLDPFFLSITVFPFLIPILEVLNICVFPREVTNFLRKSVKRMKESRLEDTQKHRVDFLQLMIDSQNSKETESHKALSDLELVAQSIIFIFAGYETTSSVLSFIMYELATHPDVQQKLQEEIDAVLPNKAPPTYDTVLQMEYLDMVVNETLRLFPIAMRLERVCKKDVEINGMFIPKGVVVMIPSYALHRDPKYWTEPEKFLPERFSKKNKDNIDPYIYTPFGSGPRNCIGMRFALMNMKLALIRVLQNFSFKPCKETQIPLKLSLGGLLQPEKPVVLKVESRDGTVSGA
CYP2D6, sequence (P10635 whole entry): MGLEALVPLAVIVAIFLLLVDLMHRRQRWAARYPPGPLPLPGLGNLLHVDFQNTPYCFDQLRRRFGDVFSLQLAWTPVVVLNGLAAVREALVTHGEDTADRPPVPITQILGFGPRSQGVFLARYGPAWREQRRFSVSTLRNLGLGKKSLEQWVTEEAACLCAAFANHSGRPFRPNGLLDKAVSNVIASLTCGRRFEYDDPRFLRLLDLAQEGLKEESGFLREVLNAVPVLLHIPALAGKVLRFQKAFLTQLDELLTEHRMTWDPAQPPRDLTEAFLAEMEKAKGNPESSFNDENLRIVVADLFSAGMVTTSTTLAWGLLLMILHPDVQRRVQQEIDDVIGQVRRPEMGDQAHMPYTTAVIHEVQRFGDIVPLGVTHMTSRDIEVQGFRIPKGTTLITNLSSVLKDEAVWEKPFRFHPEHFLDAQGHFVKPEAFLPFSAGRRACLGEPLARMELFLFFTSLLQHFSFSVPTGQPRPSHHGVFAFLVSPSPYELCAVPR

SMILES: CC(C)(C)NC(=O)[C@@H]1C[C@@H]2CCCC[C@@H]2CN1C[C@@H](O)[C@H](Cc1ccccc1)NC(=O)[C@H](CC(N)=O)NC(=O)c1ccc2ccccc2n1 [Saquinavir]
- EC50 (HIV-1 HT/92/599): 9 nM
- fraction unbound at 2 h, 5 μM [1]: 0.0353 ± 0.00151
- EC50 (HIV-1RF [2]; 0 h): < 3 nM
- EC50 (HIV-1RF [2]; 24 h): 4 nM
- EC50 (HIV-1RF [2]; 48 h): 5 nM
- EC50 (HIV-1RF [2]; 72 h): 10 nM
- EC50 (HIV-1RF [3]; 2 h): 20 nM
- EC50 (HIV-1RF [3]; 8 h): 50 nM
- EC50 (HIV-1RF [3]; 24 h): 40 nM
- TC50 (CEM-SS cells; 3 days): >1000 nM
- TC50 (CEM-SS cells; 4 days): >1000 nM
- TC50 (CEM-SS cells; 5 days): >1000 nM
- TC50 (CEM-SS cells; 6 days): >1000 nM
- Percent Infectivity of HIV-1 Virions in comparison to virus-alone control (HIV-1 virions; 0.01 μM, added 8 h post-infection): 100.0%
- Percent Infectivity of HIV-1 Virions in comparison to virus-alone control (HIV-1 virions; 0.01 μM, added 16 h post-infection): 117.0%
- Percent Infectivity of HIV-1 Virions in comparison to virus-alone control (HIV-1 virions; 0.01 μM, added 24 h post-infection): 404.8%
- Percent Infectivity of HIV-1 Virions in comparison to virus-alone control (HIV-1 virions; 0.1 μM, added 8 h post-infection): 5.6%
- Percent Infectivity of HIV-1 Virions in comparison to virus-alone control (HIV-1 virions; 0.1 μM, added 16 h post-infection): 10.0%
- Percent Infectivity of HIV-1 Virions in comparison to virus-alone control (HIV-1 virions; 0.1 μM, added 24 h post-infection): 128.0%
- reduction of virion infectivity vs virus-only control (HIV-1 virions; 1 μM at 24 hours post-infection): ~90%
- Percent Infectivity of HIV-1 Virions in comparison to virus-alone control (HIV-1 virions; 1 μM, added 8 h post-infection): 0.1%
- Percent Infectivity of HIV-1 Virions in comparison to virus-alone control (HIV-1 virions; 1 μM, added 16 h post-infection): 7.8%
- Percent Infectivity of HIV-1 Virions in comparison to virus-alone control (HIV-1 virions; 1 μM, added 24 h post-infection): 12.8%
- reduction of virion infectivity vs virus-only control (HIV-1 virions; 0.1 or 1 μM at 8 and 16 hours post-infection): at least 90%
- EC50 (HIV-1BaL): 40 nM
- TC50 (human monocytes): >1000 nM
- time of addition up to which antiviral activity (reduced p24) was seen (HIV-1RF [4]; 0.1 μM): up to 16 hours post-infection
- time of addition up to which antiviral activity (reduced p24) was seen (HIV-1RF [4]; 1 μM): up to 24 hours post-infection

SMILES: COCCOCCOCCNc1ccc(S(=O)(=O)N(CC(C)C)CC(O)[C@H](Cc2ccccc2)NC(=O)O[C@H]2CO[C@H]3OCC[C@H]32)cc1 (some centres unmarked) [mPEG3-N-Darunavir]
- Plasma Protein Binding Fu ± SD (human plasma proteins): 0.236 ± 0.0292
- 3A4 t1/2 ± SEM (CYP3A4 [5]): 66.6 ± 4.88 min
- CLint ± SEM (human hepatocytes; 0.1 uM, up to four hours): 48.0 ± 4.75 μL/min/10^6 cells
- t1/2 (human hepatocytes; 0.1 uM, up to four hours): 28.9 min
- CLint ± SEM (human hepatocytes; 3 uM, incubated up to one hour): 18.2 ± 1.47 μL/min/10^6 cells
- 2D6 t1/2 ± SEM (CYP2D6): 68.4 ± 18.9 min
- EC50 (HIV-1RF [6]): < 0.7 nM
- A→B, ×10^−6 (Caco-2 cells): 2.52 cm/s
- CLint ± SEM [7]: 385 ± 0.718 μL/min/mg protein
- t1/2 [7]: 3.60 min
- IC50 (CYP3A4 [8]; read-out: CYP3A4 IC50 Midazolam, probe substrate midazolam): 1200 nM
- IC50 (CYP3A4 [8]; read-out: CYP3A4 IC50 Testosterone, probe substrate testosterone): 3100 nM
- Microsomal Protein Binding Fu ± SD [9]: 0.96 ± 0.0407
